Our source for the EC50 values is patent US9067920B2, “Compounds useful for inhibiting Chk1” (Eli Lilly and Company, priority 2010, dated 2015).

Each structure is given as a SMILES string.

In this assay the target is T1, Chk1 (Homo sapiens, UniProt O14757).
T1 sequence (O14757 1-476): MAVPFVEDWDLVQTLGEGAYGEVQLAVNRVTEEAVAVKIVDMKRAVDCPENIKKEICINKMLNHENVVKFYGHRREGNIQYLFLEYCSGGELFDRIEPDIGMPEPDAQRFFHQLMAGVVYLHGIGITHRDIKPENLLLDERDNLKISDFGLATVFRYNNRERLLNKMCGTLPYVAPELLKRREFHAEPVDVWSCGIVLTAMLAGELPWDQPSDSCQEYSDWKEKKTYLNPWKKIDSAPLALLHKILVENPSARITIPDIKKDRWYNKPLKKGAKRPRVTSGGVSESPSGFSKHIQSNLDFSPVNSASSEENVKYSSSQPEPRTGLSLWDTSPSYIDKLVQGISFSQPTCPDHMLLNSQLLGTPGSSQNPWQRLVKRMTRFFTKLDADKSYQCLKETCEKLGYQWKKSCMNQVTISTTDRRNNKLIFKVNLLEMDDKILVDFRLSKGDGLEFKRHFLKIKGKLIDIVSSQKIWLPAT
Description: Chk1 autophosphorylation cell based assay (phospho-Chk1 serine 296 immunoblot, doxorubicin-treated HeLa cells). Also on record: endogenous in cells; host or cells: HeLa. Particulars: 100 nM doxorubicin, 2 h compound, read-out: EC50 (inhibition of doxorubicin induced Chk1 autophosphorylation). On the procedure: An inhibitor of Chk1 will prevent the kinase activity of the protein from phosphorylating substrates in cells in which the DNA damage response has been activated. An easily detectable substrate for Chk1 is an autophosphorylation site on Chk1 itself, serine 296. The following immunoblot assay can be used to measure the amount of phosphorylation of serine 296 on Chk1 and indirectly the activity level of the Chk1 protein kinase, HeLa cells are cultured in MEM w/Earle's Balanced Salt Solution with L-glutamine supplemented with 10% (v/v) heat inactivated fetal bovine serum, 1×MEM non-essential amino acids, 1× sodium pyruvate and 1×10^5 cells plated in 600 μL of MEM culture media per well of a […] cell culture plate. Cells are incubated for 24 h at 37° C., 5% CO2 and […]. Sixteen μL of a 4 μM stock of doxorubicin in culture media are added to each appropriate well to make a final concentration of 100 nM doxombicin. Plates are returned to the incubator for 24 additional hours prior to Chk1 inhibitor compound addition. […] Antigen-antibody-reporter conjugates immobilized on the membrane are detected with the Super Signal Western Femto HRP-detection reagent using a FUJI LAS-4000 imaging system. Phospho-Chk1 (ser296) band intensities are calculated using “Total Lab” software (Nonlinear Dynamics). […]
(Immunoblotting shows a protein as a band on a membrane.)

Turning to `COc1nc(C)ccc1-c1cc(Nc2cncc(O[C@@H]3CCCNC3)n2)[nH]n1` [Example 1, (R)-[5-(2-Methoxy-6-methyl-pyridin-3-yl)-2H-pyrazol-3-yl]-[6-(piperidin-3-yloxy)-pyrazin-2-yl]-amine], the EC50 (as a rule, the concentration needed to bring the measured effect to its halfway point) is less than 1 nM.
